Assay results: patent US11166940B2, “Treatment of cardiac disorders by blocking SK4 potassium channel” (Ramot at Tel-Aviv University Ltd., priority 2016, dated 2021)

Columns and labels:
If and INCX currents = conditions: 5 μM TRAM-34; cited from earlier work
[1] = tested on: SAN cells from CASQ2-D307H KI mice; test: Spontaneous APs and DADs of isolated SAN cells from CASQ2 D307H KI mice; type: cell-based, mouse; conditions: 2 μM TRAM-34 added to 50 nM isoproterenol
Procedure: WT and CASQ2 D307H KI mice were anesthetized with isofluorane and sacrificed by cervical dislocation. The heart was rapidly removed and transferred into Tyrode solution containing heparin. […] The area was cleaned, cut into small strips and washed into a Low Calcium Solution, containing (in mM): 140 NaCl, 5.4 KCl, 0.5 MgCl2, 1.2 KH2PO4, 5 HEPES-NaOH, 50 taurine, 5.5 glucose (pH 6.9). The osmolarity was adjusted if needed to 315 mOsm.
The same solution, supplemented with 1 mg/ml albumin, 200 μM CaCl2, collagenase Type I (Worthington) or liberase TH (Roche), protease (Sigma) and elastase (Sigma) was used for enzymatic digestion as previously described [See, Mesirca, P., et al. Nat Commun 5, 4664 (2014)]. In this step, the tissue was gently resuspended with a polished Pasteur pipette in this solution for 9-13 minutes at 37° C. SAN samples were then washed three times in a modified “Kraftbrühe” solution, containing (in mM): 70 glutamic acid, 80 KOH, 20 KCl, 10 γ-Hydroxybutyric acid sodium salt, 10 KH2PO4, 10 HEPES-KOH, 10 taurine, 1 mg/ml albumin, 0.1 EGTA-KOH (pH 7.2). […] Cells were then gradually exposed to increasing concentrations of calcium, following a “Ca^2+ readaptation” protocol [Mesirca et al., 2014, supra]. […]
FIG. 5F (Left) presents representative traces of spontaneous APs recorded in single SAN cell from CASQ2 D307H KI mice. […]

WT mice = test: In vivo telemetric ECG recording in WT (normal) mice; design: species or system mouse; conditions: 20 mg/kg IP, WT mice at rest
Excerpt: (§1) Telemetric ambulatory long-term ECG recordings, analogous to Holter monitoring in humans, were obtained with implantable transmitters. […] An implantable 3.5 grams wireless radiofrequency transmitter (DSI MM USA, device weight 3.8 grams) was aseptically inserted into a subcutaneous tissue pocket in the back as described in Katz, G., et al. Heart Rhythm 7, 1676-1682 (2010) and Kurtzwald-Josefson, E., et al. Heart Rhythm 11, 1471-1479 (2014)]. Animals were allowed to recover after surgery for at least 24 hours before any experiments. Baseline electrocardiograms (ECG) were obtained 15 minutes after IP injection of the appropriate vehicle (peanut oil or peanut oil supplemented with ethanol 1%). […] Telemetered ECG tracings were obtained in conscious mice at rest for one minute and during peak exercise (i.e. the first minute of recovery). In the treadmill exercise, mice were forced to exercise on a rodent treadmill; gradually increasing the speed up to a maximum of 15 m/minute. Ventricular tachycardia (VT) was defined as four or more consecutive ventricular beats. If this phenotype was consecutively observed for more than 15 seconds, it was defined as “sustained” ventricular tachycardia (SVT). Shorter VTs were characterized as “non-sustained” (NSVT). All other ventricular arrhythmias, such as premature beats, ventricular bigeminy, couplets and triplets were all defined as ventricular premature contractions (VPCs).
For this, a heart telemetry device was implanted in norma mice for continuous ECG recording at rest and during treadmill exercise. For each session, continuous ECG recording was performed with the same animals receiving first intraperitoneal (IP) injection of vehicle (peanut oil) and then 20 mg/kg clotrimazole.
(§2) A heart telemetry device was implanted in WT, CASQ2-D307H KI and CASQ2 KO mice for continuous ECG recording at rest and during treadmill exercise. For each session, continuous ECG recording was performed with the same animals receiving first intraperitoneal (IP) injection of vehicle (peanut oil) and then the SK4 channel blocker.

CASQ2-D307H KI mice = test: In vivo telemetric ECG recording in CASQ2-D307H KI mice; design: species or system mouse; conditions: 20 mg/kg IP; for number of mice, most severe ECG form: NSVT / number of mice, most severe ECG form: Normal (sinusal rhythm) / number of mice, most severe ECG form: SVT / number of mice, most severe ECG form: VPC: n=5 Clotrimazole, n=12 TRAM-34
Excerpt: as §1, §2
The types of arrhythmic features were classified following their seriousness: sinusal rhythm (normal), ventricular premature contractions (VPC), non-sustained ventricular tachycardia (NSVT) and sustained ventricular tachycardia (SVT). For each mouse was considered the most severe form of arrhythmia recorded under ECG.

Which “If and INCX currents” value (If and INCX currents) does the source give for `Clc1ccccc1C(c1ccccc1)(c1ccccc1)n1cccn1` [TRAM-34, 1-[(2-chlorophenyl)diphenylmethyl]-1H-pyrazole] here?
The value was “unaffected”.

What about the “occurrence of DADs” value [1] of the same compound?
The value was “drastically reduced”.

What about the “prolongation of the PR interval” value (WT mice) of the same compound?
The value was 20%.

What about the “reduction of resting heart rate” value (WT mice; vs vehicle in same animal) of the same compound?
The value was 16±3%.

And the PR prolongation (CASQ2-D307H KI mice; KI mice at rest, n=12)?
Its PR prolongation is 23%.

What about the heart rate decrease (CASQ2-D307H KI mice; KI mice at rest, n=12) of the same compound?
The heart rate decrease was 24±4%.

And the “sinus rate and PR interval” value (CASQ2-D307H KI mice; KI mice during treadmill exercise)?
The value was “significant sinus bradycardia and PR interval prolongation”.

What about the “mice with ECG arrhythmic features totally suppressed” value (CASQ2-D307H KI mice; KI mice, resting conditions) of the same compound?
The value was 9 out of 12.

What about the “number of mice, most severe ECG form: NSVT” value (CASQ2-D307H KI mice; KI at rest) of the same compound?
The value was 0.

And the “number of mice, most severe ECG form: Normal (sinusal rhythm)” value (CASQ2-D307H KI mice; KI at rest)?
Its value is 9.

What about the “number of mice, most severe ECG form: SVT” value (CASQ2-D307H KI mice; KI at rest) of the same compound?
The value was 0.

What about the “number of mice, most severe ECG form: VPC” value (CASQ2-D307H KI mice; KI at rest) of the same compound?
Its value is 3.

And the “number of mice, most severe ECG form: NSVT” value (CASQ2-D307H KI mice; KI during Exercise)?
Its value is 4.

And the “number of mice, most severe ECG form: Normal (sinusal rhythm)” value (CASQ2-D307H KI mice; KI during Exercise)?
Its value is 4.

What about the “number of mice, most severe ECG form: SVT” value (CASQ2-D307H KI mice; KI during Exercise) of the same compound?
The value was 0.

And the “number of mice, most severe ECG form: VPC” value (CASQ2-D307H KI mice; KI during Exercise)?
Its value is 4.
